We go through 10 compounds from patent US4885275A, “Vancomycin-HCL solutions and the lyophilization thereof” (Eli Lilly and Company, priority 1987, dated 1989).

Counter-ions that a name gives are not always drawn.

Series [1] in a line: Gel inhibition in concentrated aqueous vancomycin.HCl solutions. The class given is physicochemical. Further details: key: G = gel formation; NG = No gel formation. The conditions noted are these: test compound 10% v/v in aqueous vancomycin.HCl 20% w/v, pH about 3.2, Waring blender high speed 3 minutes. The procedure: The experiments were carried out to determine the effect on gel formation in aqueous solutions of vancomycin HCl at a concentration of 20% w/v. The solutions were prepared as follows. An aqueous vehicle containing the test compound in an amount sufficient to provide 10% v/v in the final solution was prepared with water. Vancomycin-free base was added to the aqueous vehicle in an amount sufficient to provide a 20% w/v concentration in the final solution. The slurry of base in the aqueous vehicle was treated with 20% hydrochloric acid to form vancomycin.HCl salt and to adjust the pH to about 3.2. The solution which formed was kept covered to avoid loss of the test compound and water was added to the final volume. The solution was blended in a Waring blender at high speed for 3 minutes and then transferred to clear bottles to observe for gel formation.

Series [2] is described as follows: Gel formation of aqueous vancomycin hydrochloride solutions. The class given is physicochemical. The conditions noted are these: particularly when agitated by stirring, shaking or blending.
Series [3] in a line: Vancomycin.HCl solubility in gel inhibitory compounds (UV or HPLC assay).
Procedure: The solubility of vancomycin.HCl in some of the gel inhibitory compounds was determined as follows. A two-gram quantity of chromatographically purified vancomycin hydrochloride was added to 100 ml of each compound under consideration. Fresh compound was used when possible to minimize the water content. […] The mixtures were stirred at a moderate rate for 4 hours, with sample aliquots removed at timepoints of 10 minutes, 2 hours and 4 hours. The mixtures were then allowed to stand overnight. A final aliquot was taken at the 20- to 24-hour timepoint. The sample aliquots were assayed by UV absorption measurements or HPLC with UV detection.
UV absorption at 280 nm was used to measure the concentration of vancomycin in the sample solutions made with the transparent solvents. Each sample was filtered through medium-pore filter paper and diluted with water to provide an absorption less than 1.0 A. The remaining compounds, acetone and ethyl acetate, required solvent removal before the measurement step. After filtration, sample aliquots were dried under nitrogen and reconstituted with an aqueous buffer for assay by HPLC. The propylene glycol sample were also assayed by HPLC after appropriate dilution without a drying step.
The conditions of series [4]: room temperature; cited from earlier work.

Consider `CO` [Methanol], for which, in series [1], the “Test Result (gel formation)” value is given as “G”.

For the compound `CN[C@H](CC(C)C)C(=O)N[C@H]1C(=O)N[C@@H](CC(N)=O)C(=O)N[C@H]2C(=O)N[C@H]3C(=O)N[C@H](C(=O)N[C@H](C(=O)O)c4cc(O)cc(O)c4-c4cc3ccc4O)[C@H](O)c3ccc(c(Cl)c3)Oc3cc2cc(c3O[C@@H]2O[C@H](CO)[C@@H](O)[C@H](O)[C@H]2O[C@H]2C[C@](C)(N)[C@H](O)[C@H](C)O2)Oc2ccc(cc2Cl)[C@H]1O` [Vancomycin.HCl, vancomycin hydrochloride], in series [2], the “concentration in water above which solutions form gels” value was “above 12 % w/v”. The Solubility in series [3] (in acetone, 10 min, HPLC assay) is below 10 µg/mL; in series [3] (in acetone, 2 hrs, HPLC assay), below 10 µg/mL; in series [3] (in acetone, 4 hrs, HPLC assay), below 10 µg/mL; in series [3] (in acetone, 20 hrs, HPLC assay), below 10 µg/mL; in series [3] (in ethyl acetate, 10 min, HPLC assay), below 10 µg/mL; in series [3] (in ethyl acetate, 2 hrs, HPLC assay), below 10 µg/mL. The Solubility in series [3] (in ethyl acetate, 4 hrs, HPLC assay) was below 10 µg/mL; in series [3] (in ethyl acetate, 20 hrs, HPLC assay), below 10 µg/mL; in series [3] (in isopropanol, 10 min, UV assay), 40 µg/mL; in series [3] (in isopropanol, 2 hrs, UV assay), 40 µg/mL; in series [3] (in isopropanol, 4 hrs, UV assay) it was 100 µg/mL; in series [3] (in isopropanol, 20 hrs, UV assay) it was 70 µg/mL. For the same compound, the Solubility in series [3] (in methanol, 10 min, UV assay) was 5300 µg/mL; in series [3] (in methanol, 2 hrs, UV assay), 3700 µg/mL; in series [3] (in methanol, 4 hrs, UV assay), 3100 µg/mL; in series [3] (in methanol, 20 hrs, UV assay), 2400 µg/mL; in series [3] (in propylene glycol, 10 min, HPLC assay) it was 3000 µg/mL. Moreover, the “concentration at which gel forms in ethyl alcohol” value in series [3] (in ethyl alcohol (non-aqueous)) is “about 2 mg/ml”. In addition, in series [4], the solubility in water entry is “about 200 mg/ml”.

For `CCC(C)=O` [Methyl ethyl ketone], in series [1], the “Test Result (gel formation)” value is on record as “NG”.

With `CC(=O)OC(C)C` [Isopropyl acetate], the “Test Result (gel formation)” value in series [1] was “NG”.

For `CCO` [Ethanol], the “Test Result (gel formation)” value in series [1] is on record as “NG”.

With `CC(C)O` [Isopropanol], the “Test Result (gel formation)” value in series [1] is “NG”.

As for `OCC(O)CO` [Glycerin], in series [1], the “Test Result (gel formation)” value was “G”.

Turning to `CCOC(C)=O` [Ethyl acetate], in series [1], the “Test Result (gel formation)” value was “G”.

Regarding `CC(O)CO` (centres unmarked) [Propylene glycol], the “Test Result (gel formation)” value in series [1] is given as “NG”.

Take `CC(C)=O` [Acetone]: the “Test Result (gel formation)” value in series [1] is “NG”.
